Like-named read-outs stand apart in the source and are kept apart here.
Experiments:
Type in all cases: cell-based
[1] = test system: Methylomonas methanica (CRL M4P) NRRL B-11,205; assay: Oxidation by washed cell suspensions of methane-grown cells
How it was run: (§1)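 Washed resting cells from methane-grown cultures oxidise the test substrate, supplied as a 1:1 mix with O2 or as 10 μl liquid, at 30 °C in pH 7.0 phosphate buffer; product formation is followed by GC.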

[2] = test system: Methylomonas rosaceus (CRL M10P) NRRL B-11,212
Experimental: The pH of the nutrient medium was adjusted to 7.0 by the addition of acid or base and 50 ml samples of the nutrient medium were charged into a plurality of 300 ml shaker flasks. The shaker flasks were inoculated with an inoculating loop of cells from an agar plate containing homogeneous colonies of the microorganisms on the plate (the purity of the isolates was confirmed by microscopic examination. The isolates had been maintained on agar plates under an atmosphere of methane and air having a 1:1 v/v gas ratio which had been transferred evey two weeks. The gaseous phase of the inoculated flasks was then replaced with a gas mixture comprised of methane and air having a ratio of 1:1 on a v/v basis. The inoculated flasks were sealed air tight and were incubated on a rotary shaker of orbital radius 2.5 cm at 250 rpm and at 30° C. for two days until turbidity in the medium had developed.
The cells were harvested by centrifugation at 10,000×g. at 4° C. for 30 minutes. The cell pellet was washed twice with a 0.15 M phosphate buffer at a pH of 7.0 (containing 0.002 M MgCl2). The washed cells were then suspended in a 0.15 M phosphate buffer at pH 7.0.
A 0.5 ml sample of each washed cell suspension (2 mg cells) was put into 10 ml vials at 4° C. which were sealed with a rubber cap. The gaseous phase of the vials was removed with vacuum and then was replaced with a gas mixture of the oxidative substrate (e.g., methane) and oxygen at a 1:1 v/v ratio. The vials were then incubated at 30 ° C. on a rotary shaker at 300 rpm. Samples of product (3 μl) were withdrawn periodically with a microsyringe and the products were analyzed by gas chromatography (ionization flame detector column).
The newly discovered and isolated microorganism strains of the present invention were each grown aerobically in the presence of methane in the manner described above. The methane-grown microbial cells were then washed, recovered and put to use in oxidizing an oxidative substrate by the procedure described above except in the case of a liquid substrate 10 μl of the substrate were used.

[3] = test system: Methylomonas albus (CRL M8Y) NRRL B-11,207; assay: Oxidation by washed cell suspensions of methane-grown cells
How it was run: as §1

[4] = test system: Methylobacter chroococcum (CRL 23 PM8) NRRL B-11,215; assay: as above
How it was run: as §1

[5] = test system: Methylococcus minimus (CRL 24 PM12) NRRL B-11,220; assay: as above
How it was run: as §1

[6] = test system: Methylosinus sporium (CRL 16 PM2) NRRL B-11,203; assay: as above
How it was run: as §1

[7] = test system: Methylosinus trichosporium OB3b (NRRL B-11,196); assay: Oxidation by cell suspensions of methane-grown cells; conditions: methane-grown cell-suspension, pH 7.0
[8] = test system: Methylomonas rubrum (CRL 20 PM6) NRRL B-11,211; assay: Oxidation by washed cell suspensions of methane-grown cells; conditions: for Oxidative Conversion Rates: methane-grown washed cells, 30° C., methane to methanol, alkene to 1,2-epoxide
How it was run: as §1

[9] = methane-grown washed cells, 30° C., methane to methanol, alkene to 1,2-epoxide

SMILES: CCC(C)O (centres unmarked) [2-Butanol]
- Conversion Rate to Ketone, 2 hrs. [1]: 0.06 μmole/2 mg protein
- Conversion Rate to Ketone, 20 hrs. [1]: 2 μmole/2 mg protein

SMILES: C=CC=C [Butadiene]
- Oxidative Conversion Rates [2, 9]: 9.2 μmole/hr/mg protein
- Oxidative Conversion Rates [1, 9]: 1.0 μmole/hr/mg protein
- Oxidative Conversion Rates [3, 9]: 3.0 μmole/hr/mg protein
- Oxidative Conversion Rates [4, 9]: 1.8 μmole/hr/mg protein
- Oxidative Conversion Rates [5, 9]: 3.0 μmole/hr/mg protein
- Oxidative Conversion Rates [6, 9]: 2.5 μmole/hr/mg protein

SMILES: CCCC [Butane]
- Conversion Rate to 1-Butanol ([7]; 3° C.): 0.3 μmoles/hr./mg./protein
- Conversion Rate to 2-Butanol ([7]; 3° C.): 0.4 μmoles/hr./mg./protein
- Conversion Rate to 2-Butanone ([7]; 3° C.): 0.1 μmoles/hr./mg./protein
- Conversion Rate to n-butanol ([7]; 3° C.): 0.1 μmoles/hr./mg./protein

SMILES: C [Methane]
- Conversion Rate to Methanol ([7]; 3° C.): 1.5 μmoles/hr./mg./protein
- Oxidative Conversion Rates [2]: 7.3
- Oxidative Conversion Rates [1]: 2.3
- Oxidative Conversion Rates [3]: 1.5
- Oxidative Conversion Rates [8]: 0.42 μmole/hr/mg protein
- Oxidative Conversion Rates [4]: 0.72
- Oxidative Conversion Rates [5]: 2.3
- Oxidative Conversion Rates [6]: 1.0

SMILES: CCC [Propane]
- Conversion Rate to 2-Propanol ([7]; 3° C.): 0.6 μmoles/hr./mg./protein
- Conversion Rate to Acetone ([7]; 3° C.): 0.2 μmoles/hr./mg./protein
- Conversion Rate to Propanol ([7]; 3° C.): 0.1 μmoles/hr./mg./protein
- Conversion Rate to 1-Propanol ([7]; 30° C.): 0.4 μmoles/hr./mg./protein
- Conversion Rate to Ketone ([8]; methane-grown cells, propane to acetone): 3.5 μmoles/hr/mg Protein

SMILES: C=CC [Propylene]
- Oxidative Conversion Rates [2]: 1.41
- Oxidative Conversion Rates [1, 9]: 3.8 μmole/hr/mg protein
- Oxidative Conversion Rates [3, 9]: 2.5 μmole/hr/mg protein
- Oxidative Conversion Rates [8]: 1.9 μmole/hr/mg protein
- Oxidative Conversion Rates [4, 9]: 2.5 μmole/hr/mg protein
- Oxidative Conversion Rates [5, 9]: 1.8 μmole/hr/mg protein
- Oxidative Conversion Rates [6, 9]: 3.2 μmole/hr/mg protein

From patent US4347319A, “Microbiological epoxidation process” (priority 1980, dated 1982)
